Among the data in patent publication US20090258381A1, “Methods for Determining the Cleavability of Substrates” (priority 2005, published 2009) are t1/2, catalytic efficiency and Ki values, retold here.

Data set [1] in a line: Half-lives of peptides in murine intestinal fluid (intestinal enzyme solution). The conditions noted are these: relates to undiluted murine intestinal fluid, 90 min incubation in dilutions, 37° C. As to the method:
Anesthetized female Balb/c mice were sacrificed by cervical dislocation and their abdominal wall was opened. The small bowel was clamped with a hemostat behind the stomach outlet (proximal end) and severed from the stomach. The small bowel was exposed and clamped with a second hemostat near the posterior (distal) end. The bowel was severed a second time behind this point.
The subsequent preparation steps to obtain the digestive secretions were performed on an ice-cooled surface. The small bowel closed on both sides was agitated in ice-cold simulated intestinal fluid (SIF; 8 mM phosphate, pH 7.2, with 4.6 mM K^+, 111.3 mM Na^+, 101.5 mM Cl) according to Lockwood and Randall (1949), which was intended to imitate as accurately as possible the physiological conditions of the small bowel in terms of ion concentrations, in order to remove external contaminants and keep it moist. To obtain the digestive secretions present in the small bowel, the distal end of the bowel was suspended in a reaction vessel and the hemostat attached on this side was removed. A lateral cut was then made at the proximal end of the bowel so that a syringe provided with a button cannula could be introduced into the bowel which was held without tension. The bowel contents were washed out in three steps. The washing solutions were successively injected slowly into the bowel and collected at the lower end of the bowel separately in three reaction vessels. Firstly, the bowel was rinsed with a volume of 6 ml of perfluorohexane, an inert liquid which is immiscible with water, and the perfluorohexane was driven out with 4 ml of air. Then a mixture of 2.25 ml of perfluorohexane and 0.25 ml of SIF which contained the nonphysiological ions Li^+ and Cs^+, was used for washing in order to be able subsequently to determine the dilution by spectroscopic methods. […] In a third washing step, 5 ml of SIF without tracer were injected. Solid constituents of the bowel contents and the perfluorohexane were separated by centrifugation from the aqueous phase, in which the digestive enzymes were present. An inductively coupled plasma mass spectrometry (ICP-MS) was used to determine the concentrations of Li^+ and Cs^+ in the intestinal enzyme solution, and the dilution factor was calculated taking the volume of the washing buffer into account. The dilution of the third lavage was ascertained via endogenous markers of intestinal secretion (e.g. enzymic activities, immunoglobulins), in comparison with the first two intestinal enzyme solutions. The enzyme solutions were stored after freezing with liquid nitrogen at −70° C.
On a polypropylene microtiter plate having the same format as the coated polystyrene microtiter plate (see example 4), 7.5 μl of peptide solution were introduced into the first well of a row, and 5 μl of the peptide solution were introduced into each of the next 10 wells. The last well remained empty and was intended to serve as background correction. Then, simulated intestinal fluid (SIF) with the addition of 0.005% Tween 20 and 1 mM CaCl (SIFT-CaCl) was put in all the wells. The well with 7.5 μl of peptide solution received 60 μl of SIFT-CaCl, and the wells with 5 μl of peptide solution each received 45 μl of SIFT-CaCl. The empty well for the background correction received 50 μl of SIFT-CaCl. The enzymatic reaction was then started by adding 7.5 μl of a dilution of an intestinal enzyme solution (obtained as in example 2) to the well with 7.5 μl of peptide solution and 60 μl of SIFT-CaCl. 25 μl of this mixture were immediately pipetted into the next well and mixed, and this step was repeated to result in a serial 1:3 dilution of the intestinal enzyme solution over a total of 10 wells. No enzyme solution was put into the last peptide-containing well. Each well thus contained a volume of 50 μl after the serial dilution.

The subject of data set [2] is trypsin. The conditions noted are these: cleaved with trypsin; FRET-based methods (Grahn et al., 1998); cited from earlier work.
The target of another data set is chymotrypsin. Kind of data set: Inhibition of enzymatic conversion of GVPFGP by chymotrypsin. The format is biochemical. The conditions noted are these: degradation of GVPFGP by chymotrypsin; geometric mean and standard deviation of a quadruplicate measurement; read-out: inhibition constant. The protocol:
(§1) Inhibition constants were measured by carrying out two parallel enzyme dilutions in each case. One enzyme dilution was carried out in the presence, and the other enzyme dilution in the absence, of the protease inhibitor aprotinin. […] The peptide chosen for the trypsin enzyme had the amino acid sequence GPARLA (number 42 from example 1) and the peptide chosen for the chymotrypsin enzyme had the sequence GVPFGP (number 43 from example 1). […] Then, to carry out the proteolytic cleavage in the presence of an inhibitor, 7.5 μl of an aprotinin solution (1 μg/ml for trypsin and 1 mg/ml for chymotrypsin) were put into the first well, and 5 μl of the aprotinin solution (1 μg/ml for trypsin and 1 mg/ml for chymotrypsin) were put into each of the next 10 wells. […] No enzyme solution was put in the last peptide-containing well.
(§2) The inhibition constant of aprotinin can be calculated by comparing the catalytic efficiency (kcat/KM) in the presence and in the absence of aprotinin. kcat/KM values are calculated according to equation (6) and the relationship obtained (equation (17)):
(§3) (kcat/KM)0/(kcat/KM)=1+[I]total/Ki

Data set [3] addresses trypsin. The data set is described as follows: Inhibition of enzymatic conversion of GPARLA by trypsin. The format is biochemical. The conditions noted are these: degradation of substrate GPARLA by trypsin; geometric mean and standard deviation of a quadruplicate measurement; read-out: inhibition constant. As to the method: as §1, §2, §3

FDKLPGFGDSIEAQCG registered a t1/2 in data set [1] (16-mer peptides) of 5.6930 s.

FGDSIEAQCGTSVNVH returned a t1/2 in data set [1] (16-mer peptides) of 1.3951 s.

“GPARLAIG [GPARLAIG variant of the trypsin substrate, measured with FRET-based methods (Grahn et al., 1998)]”: the catalytic efficiency in the data set with trypsin [2] was 1.2e+06 M⁻¹ s⁻¹.

On to GSAEAGVDAA, for which the t1/2 in data set [1] (10-mer peptides) amounted to 3.1271 s.

KLPGFGDSIEAQCGTS displayed a t1/2 in data set [1] (16-mer peptides) of 6.4211 s.

Consider PGFGDSIEAQCGTSVN, for which the t1/2 in data set [1] (16-mer peptides) came to 5.0348 s.

In turn, VVGSAEAGVD displayed a t1/2 in data set [1] (10-mer peptides) of 4.0618 s.

Take aprotinin: the Ki at chymotrypsin stood at 480 nM; at trypsin [3], 1 nM.
